Consider 15 compounds from patent US7217710B2, “Substituted pyrazolopyrimidines” (SmithKline Beecham Corporation, priority 2001, dated 2007).

Common to all, as to assay type: biochemical
In test [1] the target is T1, GST-VEGFR2 (Homo sapiens, UniProt P35968).
T1 construct: GST-VEGFR2, baculovirus expressed recombinant constructs of the intracellular domains; made in house
As to the kind of experiment: VEGF-R2 Enzyme Assay (VEGF-E2), LANCE method. To be noted: for IC50: read-out: VEGFR2 PIC50 VEGFR-E2 assay. (In general: In TR-FRET formats the signal depends on donor and acceptor labels being close together.)

In test [2] the target is Recombinant GST-Tie2 (Homo sapiens, UniProt Q02763). As to the kind of experiment: Tie2 Fluorescence Polarization Kinase Activity Assay (TIE2-FP). The procedure: Tie2 Fluorescence Polarization Kinase Activity Assay: (TIE2-FP)
Chain of Recombinant GST-Tie2 (Q02763 23-1124): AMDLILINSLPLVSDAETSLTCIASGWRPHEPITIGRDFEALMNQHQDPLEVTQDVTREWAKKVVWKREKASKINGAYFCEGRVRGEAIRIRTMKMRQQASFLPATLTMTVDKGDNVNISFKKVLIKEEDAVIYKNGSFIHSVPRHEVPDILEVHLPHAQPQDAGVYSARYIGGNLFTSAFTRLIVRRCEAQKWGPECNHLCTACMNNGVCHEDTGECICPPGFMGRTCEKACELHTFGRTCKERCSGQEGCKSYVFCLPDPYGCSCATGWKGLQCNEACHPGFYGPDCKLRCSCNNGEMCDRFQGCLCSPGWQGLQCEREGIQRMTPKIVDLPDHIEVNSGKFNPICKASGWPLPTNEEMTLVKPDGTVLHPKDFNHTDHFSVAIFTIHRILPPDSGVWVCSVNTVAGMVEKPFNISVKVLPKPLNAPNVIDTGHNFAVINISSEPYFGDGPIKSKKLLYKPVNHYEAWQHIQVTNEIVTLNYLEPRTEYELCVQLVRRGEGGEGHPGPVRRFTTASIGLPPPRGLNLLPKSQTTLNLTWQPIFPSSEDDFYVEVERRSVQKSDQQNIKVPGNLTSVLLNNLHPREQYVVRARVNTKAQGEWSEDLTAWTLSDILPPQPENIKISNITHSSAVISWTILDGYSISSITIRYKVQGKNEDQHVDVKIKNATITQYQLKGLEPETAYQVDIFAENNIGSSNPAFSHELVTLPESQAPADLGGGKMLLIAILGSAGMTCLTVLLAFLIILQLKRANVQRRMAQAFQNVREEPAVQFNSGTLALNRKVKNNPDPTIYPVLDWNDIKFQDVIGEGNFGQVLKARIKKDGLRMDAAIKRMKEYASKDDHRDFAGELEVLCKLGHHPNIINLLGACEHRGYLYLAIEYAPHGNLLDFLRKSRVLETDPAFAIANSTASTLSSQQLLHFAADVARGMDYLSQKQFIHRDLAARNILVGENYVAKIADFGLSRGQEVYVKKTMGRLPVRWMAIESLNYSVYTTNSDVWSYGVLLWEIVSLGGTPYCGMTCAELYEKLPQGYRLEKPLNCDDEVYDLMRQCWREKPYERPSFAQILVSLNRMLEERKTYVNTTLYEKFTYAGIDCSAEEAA
Activation of Recombinant Tie2 Activation:
Recombinant GST-Tie2 is activated by incubating the enzyme in 20 mM Tris-HCl, pH 7.5, 12 mM MgCl2, 100 mM NaCl, 20 μM sodium vanidate, 1 mM DTT and 300 μM ATP at room temperature for 2 hours. The activation mixture is then passed through a NAP-25 desalting column (Pharmacia Biotech cat. no. 17-0852-02) to remove the free ATP. The activated enzyme is stored as aliquots at −80° C. in 20 mM Tris-HCl, pH 7.5 and 100 mM NaCl.
The final assay conditions are 50 mM HEPES, pH 7.5, 5% DMSO (when screening compounds), 200 μM ATP, 5 mM MgCl2, 1 mM DTT, 50 μM sodium vanidate, 1 nM activated enzyme, and 200 μM peptide. IC50's of compounds are measured under subsaturating ATP (200 μM) and varying concentrations of activated Tie2 and peptide substrate (RFWKYEFWR-OH; MW 1873 Da, TFA salt). Panvera Anti-phosphotyrosine antibody (Cat#P2840) and PTK Green Tracer (Cat#P2842) are used to detect the phosphorylated peptide. Polarization is measured on a TECAN Polarion in 138-second cycles for 30 minutes at room temperature. IC50's are then determined from the % polarization using normal calculation methods. The IC50 values are converted to pIC50 values, i.e., −log IC50 in Molar concentration.
(Fluorescence polarisation rises when a labelled molecule tumbles more slowly, as on binding a larger partner.)

The target in test [3] is T2, catalytic domain of human VEGFR3 (Homo sapiens, UniProt P35916, H890Q).
T2 construct: made in house; host or cells: Sf9 insect cells (baculovirus, pFastBac1)
T2 sequence (P35916 with tags, fused parts or gaps isoform P35916-1 H890Q): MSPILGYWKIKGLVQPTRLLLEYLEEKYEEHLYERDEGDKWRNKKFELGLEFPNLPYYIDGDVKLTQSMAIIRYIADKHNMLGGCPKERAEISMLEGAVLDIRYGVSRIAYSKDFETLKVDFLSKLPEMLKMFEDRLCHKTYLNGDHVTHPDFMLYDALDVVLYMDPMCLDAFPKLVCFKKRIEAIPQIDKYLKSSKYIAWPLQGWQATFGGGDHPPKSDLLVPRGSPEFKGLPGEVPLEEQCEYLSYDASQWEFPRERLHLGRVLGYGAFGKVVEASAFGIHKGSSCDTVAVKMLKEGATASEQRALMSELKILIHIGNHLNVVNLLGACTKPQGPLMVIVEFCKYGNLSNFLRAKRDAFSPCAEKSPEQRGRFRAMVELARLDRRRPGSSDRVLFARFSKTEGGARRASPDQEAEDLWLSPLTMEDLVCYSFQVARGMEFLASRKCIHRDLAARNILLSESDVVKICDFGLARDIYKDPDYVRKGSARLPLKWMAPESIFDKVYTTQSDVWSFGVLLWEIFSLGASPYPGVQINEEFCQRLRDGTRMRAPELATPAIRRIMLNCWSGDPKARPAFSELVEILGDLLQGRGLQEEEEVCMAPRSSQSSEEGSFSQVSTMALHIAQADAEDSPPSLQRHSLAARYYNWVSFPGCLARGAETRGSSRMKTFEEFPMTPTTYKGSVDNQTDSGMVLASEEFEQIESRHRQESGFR
Put plainly: VEGFR-3 Homogenous Time-Resolved Fluorescence Assay (VEGFR-3-HTRF). Put shortly:
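GST-tagged human VEGFR3 catalytic domain (aa 819–1298, Sf9-expressed), pre-autophosphorylated 45 min with ATP/Mg, then 1 nM enzyme with 0.36 μM biotinylated peptide, 75 μM ATP, 10 mM MgCl2, pH 7.2, 1.5 h at room temperature. EDTA stop; HTRF detection; IC50 from hyperbolic fit of % control.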

Test [4] has as its target T3, GST-TIE2 (intracellular domains of human TIE2) (Homo sapiens, UniProt Q02763).
T3 construct: made in house
Put plainly: TIE-2 Enzyme Assay (TIE2-E2), LANCE method. The note with it: read-out: TIE2 PIC50 TIE2-E2 assay. The method, boiled down: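 GST-tagged human TIE2 intracellular domain (aa 762–1104), preactivated 2 h with 80 μM ATP, then 5 nM enzyme run 2 h at room temperature with 1 μM biotinylated D1–15 peptide, 80 μM ATP, HEPES pH 7.4, 2.4% DMSO. Phosphotyrosine detected by LANCE (Eu anti-pTyr/streptavidin-APC) after EDTA stop; IC50 by nonlinear regression, reported as pIC50.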

T1 sequence (P35968 786-1356 limits assumed): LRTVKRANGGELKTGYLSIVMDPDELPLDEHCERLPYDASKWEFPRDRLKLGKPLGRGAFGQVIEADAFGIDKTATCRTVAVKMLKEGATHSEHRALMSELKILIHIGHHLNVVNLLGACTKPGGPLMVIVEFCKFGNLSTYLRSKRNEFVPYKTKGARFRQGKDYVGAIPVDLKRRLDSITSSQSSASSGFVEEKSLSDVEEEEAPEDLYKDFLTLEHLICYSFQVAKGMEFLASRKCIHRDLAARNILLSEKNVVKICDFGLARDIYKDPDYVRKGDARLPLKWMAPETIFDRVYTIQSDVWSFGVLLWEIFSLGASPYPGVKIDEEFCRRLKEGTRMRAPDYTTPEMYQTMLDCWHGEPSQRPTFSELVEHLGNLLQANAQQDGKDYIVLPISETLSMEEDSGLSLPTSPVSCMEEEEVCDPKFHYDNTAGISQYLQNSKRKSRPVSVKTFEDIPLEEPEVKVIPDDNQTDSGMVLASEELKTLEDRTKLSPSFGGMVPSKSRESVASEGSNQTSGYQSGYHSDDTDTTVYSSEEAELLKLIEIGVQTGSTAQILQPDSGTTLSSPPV
T3 sequence (Q02763 762-1104): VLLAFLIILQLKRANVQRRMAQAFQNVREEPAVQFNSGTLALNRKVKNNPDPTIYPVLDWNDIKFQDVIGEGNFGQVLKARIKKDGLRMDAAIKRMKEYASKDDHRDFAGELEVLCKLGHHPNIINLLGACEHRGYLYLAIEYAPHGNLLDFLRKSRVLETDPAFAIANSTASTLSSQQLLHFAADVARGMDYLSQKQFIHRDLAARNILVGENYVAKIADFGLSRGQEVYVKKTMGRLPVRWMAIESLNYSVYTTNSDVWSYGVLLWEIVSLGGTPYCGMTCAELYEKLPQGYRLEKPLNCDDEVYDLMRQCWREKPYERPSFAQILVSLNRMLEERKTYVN

With “1-{4-[Benzyl-(2-morpholin-4-yl-ethylamino)-1H-pyrazolo[3,4-d]pyrimidin-3-yl]-phenyl}-3-(fluoro-trifluoromethyl-phenyl)-thiourea [Example 51]”, in test [1], the “VEGFR2 PIC50 VEGFR-E2 assay” value is given as “+ (+ = PIC50 = 5.00 to less than 6.00)”. The “TIE2 % inhibition (at 10 μM) TIE2-FP assay” value in test [2] (at 10 μM) turned out to be 0%. Besides, the “VEGFR3 PIC50 VEGFR-3-HTRF assay” value in test [3] is given as “+ (+ = PIC50 = 5.00 to less than 6.00)”.
In the case of `CCN(CC)CCCCNc1ncnc2c1c(-c1ccc(NC(=O)Nc3cc(C(F)(F)F)ccc3F)cc1)nn2C` [Example 34, 1-{4-[(4-Diethylamino-butylamino)-methyl-1H-pyrazolo[3,4-d]pyrimidin-3-yl]-phenyl}-3-(2-fluoro-5-trifluoromethyl-phenyl)-urea], in test [1], the “VEGFR2 PIC50 VEGFR-E2 assay” value is listed as “+ (+ = PIC50 = 5.00 to less than 6.00)”. Moreover, the IC50 in test [2] is below 0.1 µM. Besides, the “VEGFR3 PIC50 VEGFR-3-HTRF assay” value in test [3] is reported as “+ (+ = PIC50 = 5.00 to less than 6.00)”.
Turning to `O=C(Nc1ccc(-c2n[nH]c3ncnc(N(CCN4CCOCC4)Cc4ccccc4)c23)cc1)Nc1cc(C(F)(F)F)ccc1F` [Example 50, 1-{4-[Benzyl-(2-morpholin-4-yl-ethylamino)-1H-pyrazolo[3,4-d]pyrimidin-3-yl]-phenyl}-3-(fluoro-trifluoromethyl-phenyl)-urea], the “VEGFR2 PIC50 VEGFR-E2 assay” value in test [1] is “++ (++ = PIC50 = 6.00 to less than 7.00)”. Also, the IC50 in test [2] is below 0.1 µM. Also, the “VEGFR3 PIC50 VEGFR-3-HTRF assay” value in test [3] is “+ (+ = PIC50 = 5.00 to less than 6.00)”.
`CCc1cccc(NC(=O)Nc2ccc(-c3nn(Cc4ccccc4)c4nc(NCCN5CCOCC5)ncc34)cc2)c1` [Example 52, 1-{4-[Benzyl-(2-morpholin-4-yl-ethylamino)-1H-pyrazolo[3,4-d]pyrimidin-3-yl]-phenyl}-3-(ethyl-phenyl)-urea]: the “VEGFR2 PIC50 VEGFR-E2 assay” value in test [1] is reported as “+ (+ = PIC50 = 5.00 to less than 6.00)”. Besides, the IC50 in test [2] was 0.1 to 0.3 µM. Also, the “VEGFR3 PIC50 VEGFR-3-HTRF assay” value in test [3] is given as “+ (+ = PIC50 = 5.00 to less than 6.00)”.
On to `Cn1nc(-c2ccc(NS(=O)(=O)c3ccccc3F)cc2)c2cnc(NCCN3CCOCC3)nc21` [Example 148], for which the inhibition (usually the percentage by which the read-out fell short of the control) at 10 µM in test [2] came to 36%.
As to `Cn1nc(-c2ccc(NS(=O)(=O)c3cc(Cl)sc3Cl)cc2)c2cnc(NCCN3CCOCC3)nc21` [Example 149], the inhibition at 10 µM in test [2] was 38%.
Same read-out and setting: the figure for `Cn1nc(-c2ccc(NS(=O)(=O)c3ccc(Cl)s3)cc2)c2cnc(NCCN3CCOCC3)nc21` [Example 150] is 41%.
As to `Cc1cc(-c2nn(C)c3nc(NCCN4CCOCC4)ncc23)ccc1NS(=O)(=O)c1cccc(Cl)c1Cl` [Example 151], the IC50 in test [1] was above 10 µM. In test [2], the inhibition at 10 µM is 41%.
As to `Cc1cc(-c2nn(C)c3nc(NCCN4CCOCC4)ncc23)ccc1NS(=O)(=O)c1cccc(C(F)(F)F)c1` [Example 152], in test [2], the inhibition at 10 µM is 13%.
Same read-out and setting: the figure for `Cc1cc(-c2nn(C)c3nc(NCCN4CCOCC4)ncc23)ccc1NS(=O)(=O)c1ccccc1F` [Example 153] is 44%.
On to `Cc1cc(-c2nn(C)c3nc(NCCN4CCOCC4)ncc23)ccc1NS(=O)(=O)c1ccc(Cl)s1` [Example 154], for which the inhibition at 10 µM in test [2] was 37%.
As to `Cc1cc(-c2nn(C)c3nc(NCCN4CCOCC4)ncc23)ccc1NS(=O)(=O)c1cc(Cl)sc1Cl` [Example 155], in test [2], the inhibition at 10 µM is 23%.
Turning to `Cn1nc(-c2ccc(NS(=O)(=O)c3cccc(C(F)(F)F)c3)cc2)c2cnc(NCCN3CCOCC3)nc21` [Example 156], in test [2], the inhibition at 10 µM came out at 23%.
On to `Cn1nc(-c2ccc(NS(=O)(=O)c3cccc(C(F)(F)F)c3)c(C(F)(F)F)c2)c2cnc(NCCN3CCOCC3)nc21` [Example 157], for which the IC50 in test [1] is above 10 µM. The inhibition at 10 µM in test [2] was found to be 0%.
Take `CC(=O)c1cccc(NC(=O)Nc2ccc(-c3nn(C)c4nc(NCCN5CCOCC5)ncc34)cc2C)c1` [Example 163]: the inhibition at 10 µM in test [2] was found to be 25%. For the same compound, the IC50 in test [4] was above 10 µM.
